“Also recorded” adds a separate entry of the source.
Key:
[1] = target: T1, synthetic NS4A (Hepatitis C virus genotype 1b, UniProt Q9WMX2); experiment: Competition assay for NS4A binding against [3H] labeled azidoacylthiourea; parameters: species or system HCV
T1 construct: The full length of NS4A (54 amino acids) is synthesized; made in house
Description: (§1) To determine whether acylthiourea compounds bind to NS4A, a photo-affinity labeling is carried out, in which an [^3H] labeled photo-reactive azidoacylthiourea, 1-(5-Azido-benzofuran-2-carbonyl)-3-(4-pentyloxy-3-trifluoromethyl-phenyl)-thiourea, is mixed with synthetic NS4A at various molar ratios. The mixture is incubated at 31° C. for one hour. Samples are then illuminated by a UV lamp (254 nm wavelength) at room temperature for 7 minutes. After denaturing with equal volume of Laemmli buffer containing 5% mercaptoethanol at 99° C. for 5 minutes, samples are separated on a 10-20% SDS-PAGE. After electrophoresis, the gel is fixed with 30% methanol-10% acetic acid overnight. Then the gel is treated with 3H enhancer solution (PerkinElmer) at room temperature for one hour, and subsequently with water for 30 minutes, and dried under vacuum.
To study the binding specificity of [^3H] labeled 1-(5-Azido-benzofuran-2-carbonyl)-3-(4-pentyloxy-3-trifluoromethyl-phenyl)-thiourea to synthetic NS4A, several structurally related compounds are used in the following competition assays. Non-labeled 1-(5-Azido-benzofuran-2-carbonyl)-3-(4-pentyloxy-3-trifluoromethyl-phenyl)-thiourea shares the same structure with [^3H] labeled 1-(5-Azido-benzofuran-2-carbonyl)-3-(4-pentyloxy-3-trifluoromethyl-phenyl)-thiourea. 1-(5-Azido-benzofuran-2-carbonyl)-3-(4-pentyloxy-3-trifluoromethyl-phenyl)-urea differs in structure from 1-(5-Azido-benzofuran-2-carbonyl)-3-(4-pentyloxy-3-trifluoromethyl-phenyl)-thiourea in that 1-(5-Azido-benzofuran-2-carbonyl)-3-(4-pentyloxy-3-trifluoromethyl-phenyl)-urea has a carbonyl group where 1-(5-Azido-benzofuran-2-carbonyl)-3-(4-pentyloxy-3-trifluoromethyl-phenyl)-thiourea has a thiocarbonyl group. […]

[2] = system: HCV replicon cells; experiment: HCV replicon assay; type: cell-based
Description: Cells expressing the HCV replicon are seeded onto the internal wells of 96-well plates at a density of 7,000 cells per well. One day later, different dilutions of the test compounds are added to corresponding wells and the plates are incubated in a CO2 incubator for 72 hours. After treatment, the cells are lysed with 70 μl RLN buffer per well (50 mM Tris-HCl [pH8.0], 140 mM NaCl, 1.5 mM MgCl2, 0.5% Nonidet P-40, 1,000 units/mL RNAsin and 1 mM […]). The total lysate is transferred to a new U bottom 96-well plate and nuclei and cell debris are pelleted with a brief spin (300×g for 3 minutes). 50 μl of supernatant is removed from the well and loaded directly onto manifold wells equipped with Nylon membranes. HCV RNA is hybridized at 58° C. overnight using a labeled HCV RNA probe containing a negative strand sequence complement to the NS5B region. Hybridization buffer is composed of 50% formamide, 5×SSPE, 1% SDS, 5×Denhart's solution, and sheared denatured salmon sperm DNA. Following hybridization, the membrane is washed with washing buffer (0.1×SSC, 0.1% SDS) at room temperature for two hours, then at 65° C. for 30 minutes. The radioactivity in each well is counted on a Microbeta counter and EC50 is calculated based on cpm.
Alternatively, HCV replicon cells are trypsinized for 5-10 minutes in a CO2 incubator. Then, cells are placed in a 15 mL tube, and are spun at 1000 rpm for 4 minutes and trypsin solution is removed. Cell pellets are washed once with PBS and spun 4 minutes at 1000 rpm.
Trypsinization and wash steps, supra, are conducted efficiently to minimize cell death. PBS is removed and cells are resuspended in 4 mL fresh PBS and cells are seeded at a dilution of 5000 cells per well to 96 well plates. Test compounds are diluted in 96 well U bottom plates with DMEM (high glucose) (BRL, Catalog #21063) supplemented with 10% FBS, L-glutamine, and non-essential amino acid. 100 uL of test compound is loaded into each well. […]
100 uL of development solution (TMB one-step substrate system) is added and plates are developed in the dark for 10 to 30 minutes. […] OD450 is measured.

[3] = target: T1, synthetic NS4A; experiment: Photo-affinity labeling of synthetic NS4A; type: binding, HCV; conditions: [3H] labeled compound, UV 254 nm photolysis, SDS-PAGE
Description: Experiments are undertaken to investigate the affinity and binding specificity of acylthiourea compounds to NS4A. The full length of NS4A (54 amino acids) is synthesized, and characterized with mass spectral analysis and HPLC profiling. An NS4A sample is then dissolved in 100% dimethylsulphoxide (DMSO) at a concentration of 2 μg/μl, and subjected to a 10-20% SDS-PAGE with a reducing reagent. A 6 kDa protein band, consistent with the size of NS4A, is detected in the gel following a Coomassie blue staining. The NS4A identity of this band is further confirmed by a Western blot with monoclonal anti-NS4A antibody.
as §1, with “Then the gel is treated with 3H enhancer solution (PerkinElmer) at room temperature for one hour, and subsequently with water for 30 minutes, and dried under vacuum.” left out

[4] = target: NS3 protease domain (Hepatitis C virus genotype 1b, UniProt Q9WMX2); experiment: Photo-affinity labeling binding assay, NS3 protease domain; parameters: species or system HCV; conditions: 3.3 μM protein
Description: as §1
(§2) One band corresponds to NS4A monomer, which is also detectable with Coomassie blue staining (FIG. 3). […] Without being bound by any particular theory, it is believed that this band may be composed largely of polymer form or aggregates of NS4A. At the same time, full-length NS3 and NS3 protease domain is included in this binding assay.

[5] = target: full-length NS3 (Hepatitis C virus genotype 1b, UniProt Q9WMX2); experiment: Photo-affinity labeling binding assay, full-length NS3; parameters: species or system HCV; conditions: 3.3 μM protein
Description: as §1, §2

T1 sequence (Q9WMX2 1658-1711): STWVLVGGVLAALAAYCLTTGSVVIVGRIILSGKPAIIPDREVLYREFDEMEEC
full-length NS3, sequence (Q9WMX2 1027-1657): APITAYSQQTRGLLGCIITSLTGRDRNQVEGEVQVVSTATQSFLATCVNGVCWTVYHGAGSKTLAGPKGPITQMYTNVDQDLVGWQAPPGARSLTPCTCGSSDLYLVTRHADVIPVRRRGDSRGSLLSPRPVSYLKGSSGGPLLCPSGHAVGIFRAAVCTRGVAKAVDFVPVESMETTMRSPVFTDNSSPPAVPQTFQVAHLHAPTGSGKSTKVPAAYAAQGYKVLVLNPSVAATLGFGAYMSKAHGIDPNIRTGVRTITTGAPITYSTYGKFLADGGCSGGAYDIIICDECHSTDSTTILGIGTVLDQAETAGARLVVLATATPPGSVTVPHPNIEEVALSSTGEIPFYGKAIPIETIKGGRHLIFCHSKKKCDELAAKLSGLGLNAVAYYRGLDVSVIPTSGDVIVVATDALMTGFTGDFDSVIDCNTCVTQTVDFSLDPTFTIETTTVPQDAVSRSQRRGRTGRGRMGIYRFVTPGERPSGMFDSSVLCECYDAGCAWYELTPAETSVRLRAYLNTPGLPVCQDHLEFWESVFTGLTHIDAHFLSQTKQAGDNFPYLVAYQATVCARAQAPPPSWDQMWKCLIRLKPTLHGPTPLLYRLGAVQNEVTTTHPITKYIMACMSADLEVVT
NS3 protease domain, sequence (Q9WMX2 1027-1208): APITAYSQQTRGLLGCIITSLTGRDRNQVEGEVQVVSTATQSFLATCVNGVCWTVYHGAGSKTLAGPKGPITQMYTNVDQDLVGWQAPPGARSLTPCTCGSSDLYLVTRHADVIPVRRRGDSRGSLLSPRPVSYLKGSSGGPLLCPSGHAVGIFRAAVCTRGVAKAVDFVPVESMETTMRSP

SMILES: CCCCCOc1ccc(NC(=O)NC(=O)c2cc3cc(N=[N+]=[N-])ccc3o2)cc1C(F)(F)F [1-(5-Azido-benzofuran-2-carbonyl)-3-(4-pentyloxy-3-trifluoromethyl-phenyl)-urea]
- competition with [3H] labeled azidoacylthiourea for NS4A binding [1]: does not compete; also recorded: abolish this competition capacity
- anti-HCV activity in replicon cells [2]: does not exhibit any anti-HCV activity

SMILES: CCCCCOc1ccc(NC(=S)NC(=O)c2cc3cc(N=[N+]=[N-])ccc3o2)cc1C(F)(F)F [1-(5-Azido-benzofuran-2-carbonyl)-3-(4-pentyloxy-3-trifluoromethyl-phenyl)-thiourea]
- binding to synthetic NS4A [3]: binds to synthetic NS4A; also recorded: two radioactive bands
- binding to NS3 protease domain [4]: weak binding signals
- binding to full-length NS3 [5]: weak binding signals

SMILES: CCCCCOc1ccc(NC(=S)NC(=O)c2cccnc2)cc1C(F)(F)F [1-(4-Pentyloxy-3-trifluoromethyl-phenyl)-3-(pyridine-3-carbonyl)-thiourea]
- competition with [3H] labeled azidoacylthiourea for NS4A binding [1]: effectively compete
- anti-HCV activity in replicon cells [2]: exhibit anti-HCV activities

SMILES: CCCCCOc1ccc(NC(=S)NC(=O)c2cc3ccccc3o2)cc1C(F)(F)F [1-(Benzofuran-2-carbonyl)-3-(4-pentyloxy-3-trifluoromethyl-phenyl)-thiourea]
- competition with [3H] labeled azidoacylthiourea for NS4A binding [1]: effectively compete
- anti-HCV activity in replicon cells [2]: exhibit anti-HCV activities

Source: patent US20090081636A1, “Pharmaceutical compositions for and methods of inhibiting HCV replication” (priority 2005, published 2009)
